Structures are written as SMILES.

Data on 26 compounds can be found in ChEMBL document CHEMBL1131369, “Isoxazolylthioamides as potential immunosuppressants a combinatorial chemistry approach” (Bioorg Med Chem Lett, 1998).

The target of the first assay is Dihydroorotate dehydrogenase (quinone), mitochondrial (Homo sapiens, UniProt Q02127). The assay can be described thus: Immunosuppressive activity expressed as ability to inhibit human recombinant dihydroorotate dehydrogenase (DHODH).
Chain of Dihydroorotate dehydrogenase (quinone), mitochondrial (Q02127 whole entry): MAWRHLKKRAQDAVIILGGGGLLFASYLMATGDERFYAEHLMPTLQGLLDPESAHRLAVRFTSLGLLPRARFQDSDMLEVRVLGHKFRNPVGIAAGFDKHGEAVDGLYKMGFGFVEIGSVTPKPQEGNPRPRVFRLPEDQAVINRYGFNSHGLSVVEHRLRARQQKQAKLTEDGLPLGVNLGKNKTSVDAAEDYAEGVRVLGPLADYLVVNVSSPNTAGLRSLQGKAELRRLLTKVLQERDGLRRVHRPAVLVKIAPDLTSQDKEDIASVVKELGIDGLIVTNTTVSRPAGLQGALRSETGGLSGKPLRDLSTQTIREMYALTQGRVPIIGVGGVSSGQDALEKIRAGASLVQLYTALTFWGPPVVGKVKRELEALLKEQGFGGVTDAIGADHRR
As for `FC(F)(F)Oc1ccc(NC(=S)c2cnoc2C2CCCCC2)cc1`, the IC50 is more than 50 µM. Turning to `CCc1oncc1/C(S)=N/c1ccc(C(F)(F)F)cc1`, the IC50 worked out at 3 µM. The same measure, in the same setting: under `CC(C)(C)c1oncc1/C(S)=N/c1ccc(C(F)(F)F)cc1` stands more than 50 µM; under `CN(C)c1ccc(NC(=S)c2cnoc2C2CCCCC2)cc1`, more than 50 µM. As for `N#Cc1ccc(NC(=S)c2cnoc2C2CC2)cc1`, the concentration for half-maximal inhibition (IC50) was determined as 9.3 µM.

In the case of `CN(C)c1ccc(NC(=S)c2cnoc2C(C)(C)C)cc1`, the IC50 was more than 50 µM.

Consider `Cc1oncc1C(=S)Nc1ccc(C#N)cc1`, for which the IC50 is 35 µM. In the case of `CCc1oncc1/C(S)=N/c1ccc(OC(F)(F)F)cc1`, the IC50 came out at 0.7 µM. On the same count and under the same terms, under `CCCCCCc1oncc1/C(S)=N/c1ccc(C(F)(F)F)cc1` stands more than 50 µM. The same measure, in the same setting: under `CN(C)c1ccc(NC(=S)c2cnoc2C2CC2)cc1` stands more than 50 µM; under `FC(F)(F)Oc1ccc(NC(=S)c2cnoc2C2CC2)cc1`, 0.8 µM; under `CCc1oncc1/C(S)=N/c1ccc(N(C)C)cc1`, 40.4 µM. As to `CC(C)(C)c1oncc1/C(S)=N/c1ccc(C#N)cc1`, the 50% inhibitory concentration (IC50) is more than 50 µM. Same read-out and setting: under `CCCCCCc1oncc1/C(S)=N/c1ccc(OC(F)(F)F)cc1` stands more than 50 µM. Take `Cc1oncc1C(=S)Nc1ccc(C(F)(F)F)cc1`: the half-inhibitory concentration (IC50) was more than 50 µM. The same measure, in the same setting: under `Cc1oncc1C(=S)Nc1ccc(N(C)C)cc1` stands more than 50 µM; under `Cc1oncc1/C(S)=N/c1ccc(OC(F)(F)F)cc1`, 7.2 µM. Still for that read-out and setting: under `CC(=O)/C(C#N)=C(/S)Nc1ccc(C(F)(F)F)cc1` stands 0.8 µM; under `FC(F)(F)c1ccc(NC(=S)c2cnoc2C2CC2)cc1`, 3.2 µM. The same measure, in the same setting: under `CCc1oncc1C(=S)Nc1ccc(C#N)cc1` stands 11 µM; under `N#Cc1ccc(NC(=S)c2cnoc2C2CCCCC2)cc1`, more than 50 µM; under `FC(F)(F)c1ccc(NC(=S)c2cnoc2C2CCCCC2)cc1`, more than 50 µM. As to `CCCCCCc1oncc1C(=S)Nc1ccc(N(C)C)cc1`, the IC50 is more than 50 µM. On the same count and under the same terms, under `CC(C)(C)c1oncc1C(=S)Nc1ccc(OC(F)(F)F)cc1` stands more than 50 µM; under `CCCCCCc1oncc1C(=S)Nc1ccc(C#N)cc1`, more than 50 µM.

The species named for a further assay is Mus musculus. The experiment in a line: Compound was tested in vitro for immunosuppressive activity which was measured in the mouse mixed lymphocyte reaction. In kind it is functional.
In the case of `Cc1oncc1C(=S)Nc1ccc(C(F)(F)F)cc1`, half-maximal inhibition (IC50) required 23 µM.

As for `CC(=O)/C(C#N)=C(/S)Nc1ccc(C(F)(F)F)cc1`, the IC50 came to 11 µM. Same read-out and setting: under `C/C(O)=C(/C#N)C(=O)Nc1ccc(C(F)(F)F)cc1` stands 10 µM.

As usually defined, the IC50 is the midpoint of a concentration-inhibition curve.
